pIC50: −log10 of the molar value.
Test system: 931267-113-T-J1-PDC KRAS spheroid with HUVEC/MSC, viability
Test: Anticancer human tumor 931267-113-T-J1-PDC patient-derived colon adenocarcinoma cell line growth inhibition [KRAS2]
Conditions: for pIC50: curve of first compound; for viability, T/C: stronger effect = lower value
Procedure, shortened: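 Combination screen of spheroid viability in tumor-cell co-cultures with endothelial (HUVEC) and mesenchymal stem cell stroma. Each agent was tested in half-log dilutions, topping at clinical Cmax or at 10 microM without a known Cmax.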

[1] = second compound 0.1 µM, first compound 0.01 µM
[2] = second compound 0.1 µM, first compound 0.0316 µM
[3] = second compound 0.1 µM, first compound 0.1 µM
[4] = second compound 0.1 µM, first compound 0.316 µM
[5] = second compound 0.1 µM, first compound 1 µM
[6] = second compound 0.1 µM, first compound 3.16 µM
[7] = second compound 0.316 µM, first compound 0.01 µM
[8] = second compound 0.316 µM, first compound 0.0316 µM
[9] = second compound 0.316 µM, first compound 0.1 µM
[10] = second compound 0.316 µM, first compound 0.316 µM
[11] = second compound 0.316 µM, first compound 1 µM
[12] = second compound 0.316 µM, first compound 3.16 µM
[13] = second compound 1 µM, first compound 0.01 µM
[14] = second compound 1 µM, first compound 0.0316 µM
[15] = second compound 1 µM, first compound 0.1 µM
[16] = second compound 1 µM, first compound 0.316 µM
[17] = second compound 1 µM, first compound 1 µM
[18] = second compound 1 µM, first compound 3.16 µM
[19] = second compound 3.16 µM, first compound 0.01 µM
[20] = second compound 3.16 µM, first compound 0.0316 µM
[21] = second compound 3.16 µM, first compound 0.1 µM
[22] = second compound 3.16 µM, first compound 0.316 µM
[23] = second compound 3.16 µM, first compound 1 µM
[24] = second compound 3.16 µM, first compound 3.16 µM
[25] = second compound 10 µM, first compound 0.01 µM
[26] = second compound 10 µM, first compound 0.0316 µM
[27] = second compound 10 µM, first compound 0.1 µM
[28] = second compound 10 µM, first compound 0.316 µM
[29] = second compound 10 µM, first compound 1 µM
[30] = second compound 10 µM, first compound 3.16 µM
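Also: compound exposure lasted 7 days before the readout.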
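For viability, T/C in this document: 100% = DMSO vehicle control viability.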

## CC(=O)OC12COC1CC(O)C1(C)C(=O)C(O)C3=C(C)C(OC(=O)C(O)C(NC(=O)OC(C)(C)C)c4ccccc4)CC(O)(C(OC(=O)c4ccccc4)C21)C3(C)C (stereo not given) + CC1OCC2(CCN(c3cnc(Sc4ccnc(N)c4Cl)c(N)n3)CC2)C1N
Second compound 0.1 µM
  pIC50: < 5.50
Second compound 0.316 µM
  pIC50: < 5.50
Second compound 1 µM
  pIC50: < 5.50
Second compound 3.16 µM
  pIC50: 6.54
Second compound 10 µM
  pIC50: 6.56
[1]
  viability, T/C: 88.4%
[2]
  viability, T/C: 90.5%
[3]
  viability, T/C: 74.8%
[4]
  viability, T/C: 80%
[5]
  viability, T/C: 86.2%
[6]
  viability, T/C: 91.4%
[7]
  viability, T/C: 74.8%
[8]
  viability, T/C: 90.5%
[9]
  viability, T/C: 64.9%
[10]
  viability, T/C: 65.4%
[11]
  viability, T/C: 78.6%
[12]
  viability, T/C: 58.5%
[13]
  viability, T/C: 95.2%
[14]
  viability, T/C: 111%
[15]
  viability, T/C: 108%
[16]
  viability, T/C: 82.8%
[17]
  viability, T/C: 79.5%
[18]
  viability, T/C: 93.2%
[19]
  viability, T/C: 52.3%
[20]
  viability, T/C: 74.3%
[21]
  viability, T/C: 53%
[22]
  viability, T/C: 50.6%
[23]
  viability, T/C: 48.9%
[24]
  viability, T/C: 49.7%
[25]
  viability, T/C: 59%
[26]
  viability, T/C: 63.4%
[27]
  viability, T/C: 66.8%
[28]
  viability, T/C: 38%
[29]
  viability, T/C: 50.4%
[30]
  viability, T/C: 56.6%

## CN(C)C/C=C/C(=O)Nc1cc2c(Nc3ccc(F)c(Cl)c3)ncnc2cc1O[C@H]1CCOC1 + CC1OCC2(CCN(c3cnc(Sc4ccnc(N)c4Cl)c(N)n3)CC2)C1N
Second compound 0.1 µM
  pIC50: < 7.00
Second compound 0.316 µM
  pIC50: < 7.00
Second compound 1 µM
  pIC50: < 7.00
Second compound 3.16 µM
  pIC50: > 9.50
Second compound 10 µM
  pIC50: < 7.00
Second compound 0.1 µM, first compound 0.000316 µM
  viability, T/C: 80.6%
Second compound 0.1 µM, first compound 0.001 µM
  viability, T/C: 77.1%
Second compound 0.1 µM, first compound 0.00316 µM
  viability, T/C: 58.5%
[1]
  viability, T/C: 73.5%
[2]
  viability, T/C: 84.6%
[3]
  viability, T/C: 69%
Second compound 0.316 µM, first compound 0.000316 µM
  viability, T/C: 66.8%
Second compound 0.316 µM, first compound 0.001 µM
  viability, T/C: 70%
Second compound 0.316 µM, first compound 0.00316 µM
  viability, T/C: 65.5%
[7]
  viability, T/C: 62.6%
[8]
  viability, T/C: 67.4%
[9]
  viability, T/C: 80.4%
Second compound 1 µM, first compound 0.000316 µM
  viability, T/C: 84.4%
Second compound 1 µM, first compound 0.001 µM
  viability, T/C: 77.4%
Second compound 1 µM, first compound 0.00316 µM
  viability, T/C: 77%
[13]
  viability, T/C: 71.4%
[14]
  viability, T/C: 93.5%
[15]
  viability, T/C: 90.8%
Second compound 3.16 µM, first compound 0.000316 µM
  viability, T/C: 34.6%
Second compound 3.16 µM, first compound 0.001 µM
  viability, T/C: 48.8%
Second compound 3.16 µM, first compound 0.00316 µM
  viability, T/C: 49.1%
[19]
  viability, T/C: 49.6%
[20]
  viability, T/C: 57.7%
[21]
  viability, T/C: 49.4%
Second compound 10 µM, first compound 0.000316 µM
  viability, T/C: 90.2%
Second compound 10 µM, first compound 0.001 µM
  viability, T/C: 71.6%
Second compound 10 µM, first compound 0.00316 µM
  viability, T/C: 68.4%
[25]
  viability, T/C: 71.5%
[26]
  viability, T/C: 97.1%
[27]
  viability, T/C: 93.7%

## O=C(c1cc(Cc2n[nH]c(=O)c3ccccc23)ccc1F)N1CCN(C(=O)C2CC2)CC1 + CC1OCC2(CCN(c3cnc(Sc4ccnc(N)c4Cl)c(N)n3)CC2)C1N
Second compound 0.1 µM
  pIC50: < 5.00
Second compound 0.316 µM
  pIC50: < 5.00
Second compound 1 µM
  pIC50: < 5.00
Second compound 3.16 µM
  pIC50: < 5.00
Second compound 10 µM
  pIC50: 5.50
[2]
  viability, T/C: 72.8%
[3]
  viability, T/C: 70.8%
[4]
  viability, T/C: 72.9%
[5]
  viability, T/C: 68.4%
[6]
  viability, T/C: 81.5%
Second compound 0.1 µM, first compound 10 µM
  viability, T/C: 73.5%
[8]
  viability, T/C: 64.2%
[9]
  viability, T/C: 72.7%
[10]
  viability, T/C: 59.1%
[11]
  viability, T/C: 66.9%
[12]
  viability, T/C: 54.8%
Second compound 0.316 µM, first compound 10 µM
  viability, T/C: 62.4%
[14]
  viability, T/C: 86.6%
[15]
  viability, T/C: 89.5%
[16]
  viability, T/C: 89.1%
[17]
  viability, T/C: 86%
[18]
  viability, T/C: 73.3%
Second compound 1 µM, first compound 10 µM
  viability, T/C: 89.1%
[20]
  viability, T/C: 56.6%
[21]
  viability, T/C: 48%
[22]
  viability, T/C: 52.6%
[23]
  viability, T/C: 64.6%
[24]
  viability, T/C: 56.4%
Second compound 3.16 µM, first compound 10 µM
  viability, T/C: 50.8%
[26]
  viability, T/C: 59.9%
[27]
  viability, T/C: 60.2%
[28]
  viability, T/C: 99%
[29]
  viability, T/C: 46%
[30]
  viability, T/C: 63.9%
Second compound 10 µM, first compound 10 µM
  viability, T/C: 51.9%

Source: PubChem BioAssay AID1963863 (Molecular Pharmacology Branch, DTP, NCI, 2024)
